The test has as its target T1, CFTR (Homo sapiens, UniProt P13569).
T1 construct: expressed in transfected cells; host or cells: COS7 cells infected with the recombinant Sendai virus SeV/CFTR (CFTR cDNA in the NotI site of pSeV18+b(+))
Briefly: Whole-cell patch clamp of COS7 cells infected with CFTR-expressing Sendai virus. Format: cell-based. The following applies: COS7 cells expressing sample-1 SeV/CFTR. Here is the method: COS7 cells were infected with the prepared CFTR-expressing Sendai virus (sample-1 SeV/CFTR), and the obtained infected cells were analyzed by the whole-cell patch clamp technique. […] A glass pipette containing a pipette solution was contacted with a cell within a bath solution, and negative pressure was applied to remove the cell membranes. In this occasion, the pipette solution contains 145 mM NMDG^+, 148.4 mM Cl^−, […], 5 mM ATP, 10 mM glucose, 0.1 mM EGTA, and 10 mM HEPES (titrated by Tris, pH 7.4), and the bath solution contains 141 mM Na^+, 152.4 mM Cl^−, […], 5 mM K^+, 1.7 mM Mg^2+, 2 mM Ca^2+, 10 mM glucose, 0.1 mM EGTA, and 10 mM HEPES (titrated by Tris, pH 7.4). The effects of forskolin on the membrane current in COS7 cells expressing sample-1 SeV/CFTR were examined by whole-cell recording (FIG. 14). […] The influx current was reproduced by adding forskolin again after a single wash, and was again suppressed by glibenclamide, which confirmed that the observed change in current was a specific drug-induced response.
Background: Patch clamp records ionic current or voltage across a cell membrane.

These results are taken from patent US7314614B1, “Recombinant sendai virus vector for introducing exogenous genes to airway epithelia” (priority 1999, dated 2008).

The structures appear in SMILES notation.

T1 sequence (P13569 whole entry): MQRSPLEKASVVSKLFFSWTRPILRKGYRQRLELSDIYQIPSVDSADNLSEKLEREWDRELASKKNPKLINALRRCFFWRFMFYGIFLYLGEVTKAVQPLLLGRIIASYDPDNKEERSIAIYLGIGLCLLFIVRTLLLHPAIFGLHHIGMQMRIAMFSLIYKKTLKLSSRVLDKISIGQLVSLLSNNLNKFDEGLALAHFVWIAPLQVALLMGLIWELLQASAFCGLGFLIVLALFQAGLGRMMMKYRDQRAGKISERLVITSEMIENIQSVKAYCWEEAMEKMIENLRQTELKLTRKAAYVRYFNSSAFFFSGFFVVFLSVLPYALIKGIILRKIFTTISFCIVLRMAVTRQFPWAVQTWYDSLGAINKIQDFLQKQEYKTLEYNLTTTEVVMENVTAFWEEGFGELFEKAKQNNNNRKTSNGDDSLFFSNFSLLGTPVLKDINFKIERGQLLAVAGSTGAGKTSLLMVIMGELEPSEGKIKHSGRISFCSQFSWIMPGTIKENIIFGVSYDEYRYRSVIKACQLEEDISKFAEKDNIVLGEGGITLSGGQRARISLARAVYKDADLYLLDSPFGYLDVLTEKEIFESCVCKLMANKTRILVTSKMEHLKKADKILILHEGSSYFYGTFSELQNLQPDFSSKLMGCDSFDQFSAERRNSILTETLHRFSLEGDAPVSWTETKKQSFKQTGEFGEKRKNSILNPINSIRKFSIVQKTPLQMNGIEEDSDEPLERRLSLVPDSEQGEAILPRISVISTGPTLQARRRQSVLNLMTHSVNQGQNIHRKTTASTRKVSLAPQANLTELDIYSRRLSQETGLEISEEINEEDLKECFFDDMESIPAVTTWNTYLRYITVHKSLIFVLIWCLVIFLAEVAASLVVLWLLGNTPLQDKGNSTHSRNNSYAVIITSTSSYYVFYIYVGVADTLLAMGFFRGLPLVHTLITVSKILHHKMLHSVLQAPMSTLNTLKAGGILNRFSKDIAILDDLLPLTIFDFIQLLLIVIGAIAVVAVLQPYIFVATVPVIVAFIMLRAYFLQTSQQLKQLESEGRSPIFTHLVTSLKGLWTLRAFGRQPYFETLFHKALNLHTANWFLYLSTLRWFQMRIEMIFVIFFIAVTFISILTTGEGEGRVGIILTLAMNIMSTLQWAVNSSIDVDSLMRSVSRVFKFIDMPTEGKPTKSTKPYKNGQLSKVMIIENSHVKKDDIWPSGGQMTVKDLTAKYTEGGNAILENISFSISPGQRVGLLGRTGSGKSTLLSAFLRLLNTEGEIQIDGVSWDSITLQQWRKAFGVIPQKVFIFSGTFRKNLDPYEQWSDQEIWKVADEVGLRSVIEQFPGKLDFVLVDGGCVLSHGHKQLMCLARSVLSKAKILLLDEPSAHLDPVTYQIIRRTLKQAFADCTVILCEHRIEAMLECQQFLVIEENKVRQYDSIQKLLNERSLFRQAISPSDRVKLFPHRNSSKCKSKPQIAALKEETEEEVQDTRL

In the case of `COc1ccc(Cl)cc1C(=O)NCCc1ccc(S(=O)(=O)NC(=O)NC2CCCCC2)cc1` [Glibenclamide], the “effect on forskolin-induced Cl− currents” value (300 μM) is recorded as “inhibited”. For the same molecule, the “effect on forskolin-induced influx current” value (whole-cell recording, reproduced after wash (FIG. 14)) is listed as “suppressed”.
